Laboratory results from the CheMixHub viscosity set.
Values joined by “and” are separate entries in the source; they are usually repeats but may differ in a detail not shown here. Equal entries are not always repeated. ± gives the uncertainty stated by the source.

CCCCn1cc[n+](C)c1.O=S(=O)([N-]S(=O)(=O)C(F)(F)F)C(F)(F)F
viscosity (293.15 K, 100 kPa): 61.47 ± 2.7 mPa·s
viscosity (293.15 K, 101 kPa): 64.6 ± 1.3 mPa·s and 62.91 ± 2.6 mPa·s and 65.11 ± 0.61 mPa·s
viscosity (293.15 K, 101.3 kPa): 63.1 ± 1.3 mPa·s
viscosity (293.3 K, 100 kPa): 62.66 ± 4 mPa·s
viscosity (293.61 K, 100 kPa): 61.82 ± 3.9 mPa·s
viscosity (293.91 K, 100 kPa): 60.98 ± 3.8 mPa·s
viscosity (294.21 K, 100 kPa): 60.17 ± 3.8 mPa·s
viscosity (294.52 K, 100 kPa): 59.36 ± 3.7 mPa·s
viscosity (294.82 K, 100 kPa): 58.58 ± 3.6 mPa·s
viscosity (295.12 K, 100 kPa): 57.8 ± 3.6 mPa·s
viscosity (295.42 K, 100 kPa): 57.04 ± 3.5 mPa·s
viscosity (295.73 K, 100 kPa): 56.29 ± 3.4 mPa·s
viscosity (296.03 K, 100 kPa): 55.56 ± 3.4 mPa·s
viscosity (296.33 K, 100 kPa): 54.84 ± 3.3 mPa·s
viscosity (296.64 K, 100 kPa): 54.13 ± 3.2 mPa·s
viscosity (296.94 K, 100 kPa): 53.43 ± 3.2 mPa·s
viscosity (297.24 K, 100 kPa): 52.75 ± 3.1 mPa·s
viscosity (297.55 K, 100 kPa): 52.07 ± 3.1 mPa·s
viscosity (297.85 K, 100 kPa): 51.41 ± 3 mPa·s
viscosity (298 K, 100 kPa): 49.74 ± 1.3 mPa·s
viscosity (298 K, 101 kPa): 50.4 ± 1.9 mPa·s
viscosity (298.15 K, 101 kPa): 50.29 ± 2.1 mPa·s and 51.73 ± 0.46 mPa·s and 45.3 ± 1.1 mPa·s
viscosity (298.15 K, 101.3 kPa): 50.53 ± 1 mPa·s
viscosity (298.45 K, 100 kPa): 50.12 ± 2.9 mPa·s
viscosity (298.76 K, 100 kPa): 49.49 ± 3.1 mPa·s
viscosity (299.06 K, 100 kPa): 48.87 ± 3 mPa·s
viscosity (299.36 K, 100 kPa): 48.26 ± 3 mPa·s
viscosity (299.67 K, 100 kPa): 47.66 ± 2.9 mPa·s
viscosity (299.97 K, 100 kPa): 47.08 ± 2.9 mPa·s
viscosity (300.27 K, 100 kPa): 46.5 ± 2.9 mPa·s
viscosity (300.58 K, 100 kPa): 45.93 ± 2.8 mPa·s
viscosity (300.88 K, 100 kPa): 45.37 ± 2.8 mPa·s
viscosity (301.18 K, 100 kPa): 44.82 ± 2.8 mPa·s
viscosity (301.48 K, 100 kPa): 44.27 ± 2.7 mPa·s
viscosity (301.79 K, 100 kPa): 43.74 ± 2.7 mPa·s
viscosity (302.09 K, 100 kPa): 43.22 ± 2.6 mPa·s
viscosity (302.39 K, 100 kPa): 42.7 ± 2.6 mPa·s
viscosity (302.7 K, 100 kPa): 42.19 ± 2.6 mPa·s
viscosity (303 K, 100 kPa): 41.69 ± 2.5 mPa·s
viscosity (303.15 K, 100 kPa): 40.54 ± 0.51 mPa·s and 39.95 ± 1.8 mPa·s
viscosity (303.15 K, 101 kPa): 40.77 ± 1.7 mPa·s and 41.8 ± 0.39 mPa·s
viscosity (303.61 K, 100 kPa): 40.71 ± 2.5 mPa·s
viscosity (303.91 K, 100 kPa): 40.23 ± 2.4 mPa·s
viscosity (304.21 K, 100 kPa): 39.76 ± 2.4 mPa·s
viscosity (304.52 K, 100 kPa): 39.3 ± 2.4 mPa·s
viscosity (304.82 K, 100 kPa): 38.85 ± 2.3 mPa·s
viscosity (305.12 K, 100 kPa): 38.4 ± 2.3 mPa·s
viscosity (305.42 K, 100 kPa): 37.96 ± 2.3 mPa·s
viscosity (305.73 K, 100 kPa): 37.52 ± 2.2 mPa·s
viscosity (306.03 K, 100 kPa): 37.09 ± 2.2 mPa·s
viscosity (306.33 K, 100 kPa): 36.67 ± 2.2 mPa·s
viscosity (306.64 K, 100 kPa): 36.25 ± 2.2 mPa·s
viscosity (306.94 K, 100 kPa): 35.85 ± 2.1 mPa·s
viscosity (307.24 K, 100 kPa): 35.44 ± 2.1 mPa·s
viscosity (307.55 K, 100 kPa): 35.04 ± 2.1 mPa·s
viscosity (307.85 K, 100 kPa): 34.65 ± 2.1 mPa·s
viscosity (308.15 K, 101 kPa): 34.3 ± 0.32 mPa·s
viscosity (308.15 K, 101.3 kPa): 33.95 ± 0.71 mPa·s
viscosity (308.76 K, 100 kPa): 33.51 ± 2 mPa·s
viscosity (309.06 K, 100 kPa): 33.14 ± 2 mPa·s
viscosity (309.36 K, 100 kPa): 32.78 ± 1.9 mPa·s
viscosity (309.67 K, 100 kPa): 32.42 ± 1.9 mPa·s
viscosity (309.97 K, 100 kPa): 32.07 ± 1.9 mPa·s
viscosity (310.27 K, 100 kPa): 31.72 ± 1.9 mPa·s
viscosity (310.58 K, 100 kPa): 31.38 ± 1.8 mPa·s
viscosity (310.88 K, 100 kPa): 31.04 ± 1.8 mPa·s
viscosity (311.18 K, 100 kPa): 30.71 ± 1.8 mPa·s
viscosity (311.48 K, 100 kPa): 30.38 ± 1.8 mPa·s
viscosity (311.79 K, 100 kPa): 30.05 ± 1.8 mPa·s
viscosity (312.09 K, 100 kPa): 29.73 ± 1.7 mPa·s
viscosity (312.39 K, 100 kPa): 29.42 ± 1.7 mPa·s
viscosity (312.7 K, 100 kPa): 29.11 ± 1.7 mPa·s
viscosity (313 K, 100 kPa): 28.8 ± 1.7 mPa·s
viscosity (313.15 K, 100 kPa): 28 ± 0.36 mPa·s
viscosity (313.15 K, 101 kPa): 28.06 ± 1.2 mPa·s
viscosity (313.15 K, 101.3 kPa): 28.39 ± 0.59 mPa·s
viscosity (313.2 K, 101.33 kPa): 27.26 ± 2.9 mPa·s
viscosity (313.61 K, 100 kPa): 28.2 ± 1.6 mPa·s
viscosity (313.91 K, 100 kPa): 27.91 ± 1.6 mPa·s
viscosity (314.21 K, 100 kPa): 27.62 ± 1.6 mPa·s
viscosity (314.52 K, 100 kPa): 27.33 ± 1.6 mPa·s
viscosity (314.82 K, 100 kPa): 27.05 ± 1.6 mPa·s
viscosity (315.12 K, 100 kPa): 26.77 ± 1.6 mPa·s
viscosity (315.42 K, 100 kPa): 26.49 ± 1.5 mPa·s
viscosity (315.73 K, 100 kPa): 26.22 ± 1.5 mPa·s
viscosity (316.03 K, 100 kPa): 25.95 ± 1.5 mPa·s
viscosity (316.33 K, 100 kPa): 25.69 ± 1.5 mPa·s
viscosity (316.64 K, 100 kPa): 25.43 ± 1.5 mPa·s
viscosity (316.94 K, 100 kPa): 25.17 ± 1.4 mPa·s
viscosity (317.24 K, 100 kPa): 24.92 ± 1.4 mPa·s
viscosity (317.55 K, 100 kPa): 24.67 ± 1.4 mPa·s
viscosity (318.15 K, 100 kPa): 23.75 ± 0.31 mPa·s and 24.18 ± 1.4 mPa·s
viscosity (318.76 K, 100 kPa): 23.7 ± 1.4 mPa·s
viscosity (319.06 K, 100 kPa): 23.47 ± 1.3 mPa·s
viscosity (319.36 K, 100 kPa): 23.23 ± 1.3 mPa·s
viscosity (319.67 K, 100 kPa): 23 ± 1.3 mPa·s
viscosity (319.97 K, 100 kPa): 22.78 ± 1.3 mPa·s
viscosity (320.27 K, 100 kPa): 22.56 ± 1.3 mPa·s
viscosity (320.58 K, 100 kPa): 22.34 ± 1.3 mPa·s
viscosity (320.88 K, 100 kPa): 22.12 ± 1.2 mPa·s
viscosity (321.18 K, 100 kPa): 21.9 ± 1.2 mPa·s
viscosity (321.48 K, 100 kPa): 21.69 ± 1.2 mPa·s
viscosity (321.79 K, 100 kPa): 21.48 ± 1.2 mPa·s
viscosity (322.09 K, 100 kPa): 21.28 ± 1.2 mPa·s
viscosity (322.39 K, 100 kPa): 21.07 ± 1.2 mPa·s
